Source: PubChem BioAssay (NCI)
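Assay format: 96-well plates, 48-hour exposure. At the TGI there is no net growth.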

Experiments:
Assay in all cases: inhibition of tumour cell growth, NCI panel, 48 h
ACHN renal = system: ACHN renal
SK-MEL-2 melanoma = system: SK-MEL-2 melanoma
MOLT-4 leukemia = system: MOLT-4 leukemia
OVCAR-5 ovarian = system: OVCAR-5 ovarian
NCI-H522 lung = system: NCI-H522 lung
HS 578T breast = system: HS 578T breast
HCT-116 colon = system: HCT-116 colon
SF-295 CNS = system: SF-295 CNS
HOP-92 NSCLC = system: HOP-92 NSCLC
HL-60(TB) leukemia = system: HL-60(TB) leukemia
COLO 205 colon = system: COLO 205 colon
PC-3 prostate = system: PC-3 prostate
MALME-3M melanoma = system: MALME-3M melanoma
MCF7 breast = system: MCF7 breast
M14 melanoma = system: M14 melanoma
HCT-15 colon = system: HCT-15 colon
SNB-19 CNS = system: SNB-19 CNS
A549 NSCLC = system: A549 NSCLC
UO-31 renal = system: UO-31 renal

SMILES | TGI (ACHN renal) [µM] | TGI (SK-MEL-2 melanoma) [µM] | TGI (MOLT-4 leukemia) [µM] | TGI (OVCAR-5 ovarian) [µM] | TGI (NCI-H522 lung) [µM] | TGI (HS 578T breast) [µM] | TGI (HCT-116 colon) [µM] | TGI (SF-295 CNS) [µM] | TGI (HOP-92 NSCLC) [µM] | TGI (HL-60(TB) leukemia) [µM] | TGI (COLO 205 colon) [µM] | TGI (PC-3 prostate) [µM] | TGI (MALME-3M melanoma) [µM] | TGI (MCF7 breast) [µM] | TGI (M14 melanoma) [µM] | TGI (HCT-15 colon) [µM] | TGI (SNB-19 CNS) [µM] | TGI (A549 NSCLC) [µM] | TGI (UO-31 renal) [µM]
CC(NC1=CC(=O)c2cccnc2C1=O)C(O)c1ccccc1 (stereo not drawn) | 14.5 | 4.48 | 22.4 | 4.69 | 3.57 | 8.14 | 7.79 | 2.63 | 24.5 | 6.69 | 3.42 | 10.6 | 2.94 | 3.04 | 3.12 | 8.08 | 5.66 | 5.13 | 9.49
CC(=O)C1C(=O)C(=O)N(c2ccc([N+](=O)[O-])cc2)C1=O (stereo not drawn) | > 100 | > 100 | > 100 | > 100 | > 100 | > 100 | > 100 | > 100 | > 100 | > 100 | > 100 | > 100 | – | > 100 | > 100 | > 100 | > 100 | > 100 | > 100
CCOC(=O)C1C(c2ccc(OC)cc2)c2c([nH][nH]c2=O)CC1(C)O (stereo not drawn) | > 100 | > 100 | > 100 | > 100 | > 100 | > 100 | > 100 | > 100 | > 100 | > 100 | > 100 | > 100 | > 100 | > 100 | > 100 | > 100 | > 100 | > 100 | > 100
c1ccc2c(c1)c1c3c(c4c(n32)=NCCN4)CCC1 | > 100 | 66.2 | 60.9 | > 100 | 61.2 | > 100 | > 100 | > 100 | 88 | > 100 | > 100 | > 100 | > 100 | 98.2 | > 100 | > 100 | > 100 | > 100 | > 100
CN(C)c1ccc(/C=N/c2nc3cc4sc(/N=C/c5ccc(N(C)C)cc5)nc4cc3s2)cc1 | > 100 | > 100 | > 100 | > 100 | > 100 | 92.4 | > 100 | > 100 | > 100 | > 100 | > 100 | > 100 | > 100 | > 100 | > 100 | > 100 | > 100 | > 100 | > 100
CC/C(Cl)=N\OC(=O)Nc1ccc(OC)c(C)c1 | 21.5 | 49.9 | 47 | 71.6 | 4.18 | 59.2 | 29.6 | > 100 | 5.69 | > 44.5 | 31.4 | > 92.6 | 26.6 | > 64.3 | 44.1 | 34.5 | > 100 | > 71.4 | 35.5
O=C(COc1ccccc1)N(C(=O)N1CCN(c2ccccc2)CC1)S(=O)(=O)c1ccccc1 | > 100 | > 100 | 61.9 | > 100 | > 100 | > 100 | > 100 | > 100 | > 100 | > 100 | > 100 | > 100 | > 100 | > 100 | > 100 | > 100 | > 100 | > 100 | > 100
C=CCN1C[C@H](C)N([C@H](c2ccc(C(=O)N(CC)CC)cc2)c2cccc(OC)c2)C[C@H]1C | > 100 | > 100 | 99.5 | > 100 | > 100 | > 100 | > 100 | 58.3 | 63.9 | 64.9 | 38.7 | > 100 | 47 | > 100 | > 100 | > 100 | > 100 | > 100 | > 100
COc1c(C(C)(C)C)cc(CC2C(=O)C=CC2=O)cc1C(C)(C)C | 22.5 | 36.7 | 10.3 | 35.8 | 5.03 | 70.4 | 13 | 44 | 37 | 11.3 | 24 | 35.8 | 49.6 | 45.5 | 39.6 | 37.6 | 33.9 | 55.4 | 27.5
O=C1OCC(c2ccc(Cl)cc2)=C1Cl | > 100 | 64.1 | > 100 | 44.4 | 35.9 | > 100 | 28.3 | > 100 | 58.9 | 48.5 | 70.4 | 67.9 | 32.7 | 44.6 | 41.8 | > 100 | > 100 | > 100 | 33.9
COC(=O)Cc1c([C@H]2[C@H](CC(=O)OC)c3ccccc3N2S(=O)(=O)c2ccc(C)cc2)[nH]c2ccccc12 | > 100 | > 100 | > 100 | > 100 | > 100 | > 100 | > 100 | > 100 | > 100 | > 100 | > 100 | > 100 | > 100 | > 100 | > 100 | > 100 | > 100 | > 100 | > 100
